Experimental findings from ChEMBL document CHEMBL1681643 (Bioorg Med Chem Lett, 2011) are described below.

For data set [1], the system named is CHO. The experiment in a line: Cytotoxicity against CHO cells assessed as cell viability after 72 hrs by MTT assay. As to conditions: chinese hamster. In kind it is cell-based, Cricetulus griseus.
Data set [2] relates to MDA-MB-231. The experiment in a line: Anticancer activity against NK1R overexpressing human MDA-MB-231 cells assessed as cell viability after 72 hrs by MTT assay. In kind it is functional, cell-based.
Data set [3] concerns MCF7. Nature of the data set: Anticancer activity against NK1R overexpressing human MCF7 cells assessed as cell viability after 72 hrs by MTT assay. In kind it is functional, cell-based.
The subject of data set [4] is U-87MG ATCC. The experiment in a line: Anticancer activity against NK1R overexpressing human U87MG cells assessed as cell viability after 72 hrs by MTT assay. In kind it is functional, cell-based.
The subject of data set [5] is U-251. The experiment in a line: Anticancer activity against NK1R overexpressing human U251MG cells assessed as cell viability after 72 hrs by MTT assay. In kind it is functional, cell-based.
The test system of data set [6] is CHO. The experiment in a line: Drug uptake in CHO cells at 10 uM after 30 mins by confocal microscopy. In kind it is ADME, cell-based, Cricetulus griseus. The conditions noted are these: chinese hamster, 0.5 h.
Data set [7] deals with CHO. Nature of the data set: Drug uptake in NK1R overexpressing CHO cells at 10 uM after 30 mins by confocal microscopy. In kind it is ADME, cell-based, Cricetulus griseus. The conditions noted are these: chinese hamster, 0.5 h.
The nature of data set [8]: Solubility of the compound in phosphate buffer at pH 7.4. In kind it is physicochemical.
Data set [9] has as its system CHO. Nature of the data set: Cytotoxicity against CHO cells assessed as cell proliferation after 72 hrs by MTT assay. In kind it is cell-based, Cricetulus griseus. As to conditions: chinese hamster.
Data set [10] concerns CHO. The experiment in a line: Cytotoxicity against NK1R overexpressing CHO cells assessed as cell viability after 72 hrs by MTT assay. In kind it is functional, cell-based. As to conditions: Cricetulus griseus.

Molecules are shown by their SMILES. In brackets after ≈: the same amount, converted by molar mass. Activity calls are given as the source filed them. The calls are words filed in the database; no cut-off is given here. Non-standard residues stand in square brackets, D forms with d. Residues, ends and D or L forms follow the SMILES beside them. *: point of attachment. S(CH2)2OCO2(CPT-20-yl) = CC[C@@]1(OC(=O)OCCS*)C(=O)OCc2c1cc1n(c2=O)Cc2cc3ccccc3nc2-1; Ahx = NCCCCCC(=O)O

Consider `CC[C@@]1(O)C(=O)OCc2c1cc1n(c2=O)Cc2cc3ccccc3nc2-1` [CAMPTOTHECIN], for which the Activity result was “Toxic” in [1]; “Dose-dependent effect” in data set [2]; “Dose-dependent effect” in data set [3]; “Dose-dependent effect” in data set [4]; “Dose-dependent effect” in data set [5]. The Drug uptake result in [6] and in data set [7] was “Active” in each case. In data set [8], this compound had a solubility of 2.7 µg/mL (≈ 7.75 µM).

As for `CC[C@@]1(OC(=O)OCCSSC[C@H](N)C(=O)NCCCCCC(=O)N[C@@H](CCC(N)=O)C(=O)N[C@@H](Cc2ccccc2)C(=O)N[C@@H](Cc2ccccc2)C(=O)NCC(=O)N[C@@H](CC(C)C)C(=O)N[C@@H](CCSC)C(N)=O)C(=O)OCc2c1cc1n(c2=O)Cc2cc3ccccc3nc2-1` (H-C(S(CH2)2OCO2(CPT-20-yl))[Ahx]QFFGLM-NH2), the Activity result in data set [2] was “Dose-dependent effect”; in [9], “Not Active”; in data set [3], “Dose-dependent effect”; in data set [4], “Dose-dependent effect”; in data set [5] it was “Dose-dependent effect”. Also, the Drug uptake entry in data set [6] and in data set [7] was “Active” each time. Also, in data set [10], the outcome was Active. In data set [8], this compound yielded a solubility of 8.4 µg/mL (≈ 5.97 µM).

Turning to `CC[C@@]1(OC(=O)OCCSSC[C@H](N)C(=O)N[C@@H](CCCNC(=N)N)C(=O)N2CCC[C@H]2C(=O)N[C@@H](CCCCN)C(=O)N2CCC[C@H]2C(=O)N[C@@H](CCC(N)=O)C(=O)N[C@@H](CCC(N)=O)C(=O)N[C@@H](Cc2ccccc2)C(=O)N[C@@H](Cc2ccccc2)C(=O)NCC(=O)N[C@@H](CC(C)C)C(=O)N[C@@H](CCSC)C(N)=O)C(=O)OCc2c1cc1n(c2=O)Cc2cc3ccccc3nc2-1`, the Activity entry was “Dose-dependent effect” in data set [2]; “Not Active” in [9]; “Dose-dependent effect” in [3]; “Dose-dependent effect” in data set [4]; “Dose-dependent effect” in data set [5]. Besides, the Drug uptake result in data set [6] and in data set [7] was “Active” in each case. Further, in data set [10], the outcome was Active. This compound also showed a solubility in data set [8] of 103 µg/mL (≈ 54.2 µM).

`CSCC[C@H](NC(=O)[C@H](CC(C)C)NC(=O)CNC(=O)[C@H](Cc1ccccc1)NC(=O)[C@H](Cc1ccccc1)NC(=O)[C@H](CCC(N)=O)NC(=O)CCCCCNC(=O)[C@@H](N)CS)C(N)=O` (H-C[Ahx]QFFGLM-NH2): the outcome in data set [2], in data set [3], in data set [4] and in [5] was inactive.
